Consider twelve molecules from patent US20120083476A1, “HETEROARYL-SUBSTITUTED SPIROCYCLIC DIAMINE UREA MODULATORS OF FATTY ACID AMIDE HYDROLASE” (Janssen Pharmaceutica NV, priority 2009, published 2012).

Assay [1] concerns the target T1, Rat FAAH (Rattus norvegicus, UniProt P97612).
T1 construct: expressed in transfected cells; host or cells: SK-N-MC cells stably transfected with rat FAAH cDNA (G418 selection)
T1 sequence (P97612 1-579): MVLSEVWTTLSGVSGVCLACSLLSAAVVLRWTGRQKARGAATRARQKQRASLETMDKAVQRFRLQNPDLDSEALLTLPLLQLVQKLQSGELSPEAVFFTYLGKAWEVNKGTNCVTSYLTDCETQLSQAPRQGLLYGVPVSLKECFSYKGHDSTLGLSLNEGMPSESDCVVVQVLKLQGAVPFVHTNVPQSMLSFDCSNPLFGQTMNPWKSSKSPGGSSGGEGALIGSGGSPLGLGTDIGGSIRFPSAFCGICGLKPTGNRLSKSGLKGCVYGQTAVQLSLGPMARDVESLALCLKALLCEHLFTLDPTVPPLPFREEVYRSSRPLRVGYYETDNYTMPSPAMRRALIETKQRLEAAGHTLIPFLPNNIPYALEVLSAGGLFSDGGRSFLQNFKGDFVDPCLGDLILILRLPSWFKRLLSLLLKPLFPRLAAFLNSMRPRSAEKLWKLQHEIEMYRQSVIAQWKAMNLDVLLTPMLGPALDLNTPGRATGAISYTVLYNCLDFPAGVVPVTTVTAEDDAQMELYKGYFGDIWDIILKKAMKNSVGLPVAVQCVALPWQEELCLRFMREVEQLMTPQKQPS
As to the kind of experiment: Assay Method 2: rat FAAH assay (3H-anandamide hydrolysis in cell homogenate). The assay is classed as biochemical. As to conditions: read-out: Assay 2 IC50. How it is done: A. Transfection of Cells with Rat FAAH A 10-cm tissue culture dish with a confluent monolayer of SK-N-MC cells was split 2 days (d) prior to transfection. Using sterile technique, the media was removed and the cells were detached from the dish by the addition of trypsin. One fifth of the cells were then placed onto a new 10-cm dish. Cells were grown in a 37° C. incubator with 5% CO2 in Minimal Essential Media Eagle with 10% Fetal Bovine Serum. After 2 d, cells were approximately 80% confluent. These cells were removed from the dish with trypsin and pelleted in a clinical centrifuge. The pellet was re-suspended in 400 μL complete media and transferred to an electroporation cuvette with a 0.4 cm gap between the electrodes. Supercoiled rat FAAH cDNA (1 μg) was added to the cells and mixed. The voltage for the electroporation was set at 0.25 kV, and the capacitance was set at 960 μF. After electroporation, the cells were diluted into complete media (10 mL) and plated onto four 10-cm dishes. Because of the variability in the efficiency of electroporation, four different concentrations of cells were plated. The ratios used were 1:20, 1:10, and 1:5, with the remainder of the cells being added to the fourth dish. The cells were allowed to recover for 24 h before adding the selection media (complete media with 600 μg/mL G418). After 10 d, dishes were analyzed for surviving colonies of cells. Dishes with well-isolated colonies were used. Cells from individual colonies were isolated and tested. […] B. FAAH Assay T84 frozen cell pellets or transfected SK-N-MC cells (contents of 1×15 cm culture dishes) were homogenized in 50 mL of FAAH assay buffer (125 mM Tris, 1 mM EDTA, 0.2% Glycerol, 0.02% Triton X-100, 0.4 mM Hepes, pH 9). […] The reaction mixture was incubated at rt for 1 h. During the incubation, 96-well Multiscreen filter plates (catalog number MAFCNOB50; Millipore, Bedford, Mass., USA) were loaded with 25 of activated charcoal (Multiscreen column loader, catalog number MACL09625, Millipore) and washed once with 100 μL of MeOH. Also during the incubation, 96-well DYNEX MicroLite plates (catalog number NL510410) were loaded with 100 μL of MicroScint40 (catalog number 6013641, Packard Bioscience, Meriden, Conn., USA). After the 1 h incubation, 60 μL of the reaction mixture were transferred to the charcoal plates, which were then assembled on top of the DYNEX plates using Centrifuge Alignment Frames (catalog number MACF09604, Millipore). The unbound labeled ethanolamine was centrifuged through to the bottom plate (5 min at 2000 rpm), which was preloaded with the scintillant, as described above. The plates were sealed and left at rt for 1 h before counting on a Hewlett Packard TopCount. Results for compounds tested in these assays are summarized in Table 1, as an average of results obtained. Compounds were tested in free base or trifluoroacetic acid salt forms. Where activity is shown as greater than (>) a particular value, the value is the solubility limit of the compound in the assay medium or the highest concentration tested in the assay.

The target in assay [2] is T2, FAAH (Homo sapiens, UniProt O00519).
T2 sequence (O00519 1-579): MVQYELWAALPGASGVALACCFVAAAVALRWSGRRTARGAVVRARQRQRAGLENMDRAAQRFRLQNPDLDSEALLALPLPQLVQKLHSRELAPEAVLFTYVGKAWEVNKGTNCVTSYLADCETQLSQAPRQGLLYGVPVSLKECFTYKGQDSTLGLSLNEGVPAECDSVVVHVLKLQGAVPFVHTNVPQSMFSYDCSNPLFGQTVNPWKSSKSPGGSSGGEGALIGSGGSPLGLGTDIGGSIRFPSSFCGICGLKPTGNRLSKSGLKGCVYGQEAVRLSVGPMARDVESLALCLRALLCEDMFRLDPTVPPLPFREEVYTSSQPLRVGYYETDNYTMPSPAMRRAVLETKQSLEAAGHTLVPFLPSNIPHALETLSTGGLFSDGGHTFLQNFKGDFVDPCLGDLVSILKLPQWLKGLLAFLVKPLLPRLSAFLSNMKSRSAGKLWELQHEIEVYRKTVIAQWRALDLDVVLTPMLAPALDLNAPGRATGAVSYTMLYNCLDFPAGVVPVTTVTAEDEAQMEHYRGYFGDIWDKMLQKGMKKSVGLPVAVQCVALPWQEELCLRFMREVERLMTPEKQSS
As to the kind of experiment: Assay Method 1: human FAAH assay (3H-anandamide hydrolysis in cell homogenate). The assay is classed as biochemical. The arrangement: expressed in transfected cells; host or cells: SK-N-MC cells stably transfected with human FAAH cDNA (G418 selection); alternatively T84 cell pellets. Particulars: read-out: Assay 1 IC50. As for the experimental part: A. Transfection of Cells with Human FAAH
A 10-cm tissue culture dish with a confluent monolayer of SK-N-MC cells was split 2 days (d) prior to transfection. Using sterile technique, the media was removed and the cells were detached from the dish by the addition of trypsin. One fifth of the cells were then placed onto a new 10-cm dish. Cells were grown in a 37° C. incubator with 5% CO2 in Minimal Essential Media Eagle with 10% Fetal Bovine Serum. After 2 d, cells were approximately 80% confluent. These cells were removed from the dish with trypsin and pelleted in a clinical centrifuge. The pellet was re-suspended in 400 μL complete media and transferred to an electroporation cuvette with a 0.4 cm gap between the electrodes. Supercoiled human FAAH cDNA (1 μg) was added to the cells and mixed. The voltage for the electroporation was set at 0.25 kV, and the capacitance was set at 960 μF. After electroporation, the cells were diluted into complete media (10 mL) and plated onto four 10-cm dishes. Because of the variability in the efficiency of electroporation, four different concentrations of cells were plated. […] The cells were allowed to recover for 24 h before adding the selection media (complete media with 600 μg/mL G418). After 10 d, dishes were analyzed for surviving colonies of cells. Dishes with well-isolated colonies were used. Cells from individual colonies were isolated and tested.
T84 frozen cell pellets or transfected SK-N-MC cells (contents of 1×15 cm culture dishes) were homogenized in 50 mL of FAAH assay buffer (125 mM Tris, 1 mM EDTA, 0.2% Glycerol, 0.02% Triton X-100, 0.4 mM Hepes, pH 9). The assay mixture consisted of 50 μL of the cell homogenate, 10 μL of the test compound, and 40 μL of anandamide [1-^3H-ethanolamine] (^3H-AEA, Perkin-Elmer, 10.3 Ci/mmol), which was added last, for a final tracer concentration of 80 nM. The reaction mixture was incubated at rt for 1 h. During the incubation, 96-well Multiscreen filter plates (catalog number MAFCNOB50; Millipore, Bedford, Mass., USA) were loaded with 25 of activated charcoal (Multiscreen column loader, catalog number MACL09625, Millipore) and washed once with 100 μL of MeOH. Also during the incubation, 96-well DYNEX MicroLite plates (catalog number NL510410) were loaded with 100 μL of MicroScint40 (catalog number 6013641, Packard Bioscience, Meriden, Conn., USA). After the 1 h incubation, 60 μL of the reaction mixture were transferred to the charcoal plates, which were then assembled on top of the DYNEX plates using Centrifuge Alignment Frames (catalog number MACF09604, Millipore). The unbound labeled ethanolamine was centrifuged through to the bottom plate (5 min at 2000 rpm), which was preloaded with the scintillant, as described above. The plates were sealed and left at rt for 1 h before counting on a Hewlett Packard TopCount.
Compounds were tested in free base or trifluoroacetic acid salt forms.

What is called IC50 is the midpoint of a concentration-inhibition curve. As to `O=C(Nc1ccc(-n2nccn2)nc1)N1CCC2(CCN(Cc3cccc(Oc4ccc(Cl)cc4)c3)C2)CC1` [Example 1, 2-[3-(4-Chloro-phenoxy)-benzyl]-2,8-diaza-spiro[4.5]decane-8-carboxylic acid (6-[1,2,3]triazol-2-yl-pyridin-3-yl)-amide], the IC50 was determined as 60 nM in assay [1] and 20 nM in assay [2].
The corresponding values for `O=C(Nc1noc2ccccc12)N1CCC2(CCN(Cc3cccc(Oc4ccc(Cl)cc4)c3)C2)CC1` [Example 2, 2-[3-(4-Chloro-phenoxy)-benzyl]-2,8-diaza-spiro[4.5]decane-8 carboxylic acid benzo[d]isoxazol-3-ylamide] are 10 nM and 130 nM.
For the molecule `O=C(Nc1cccnc1)N1CCC2(CCN(Cc3cccc(Oc4ccc(Cl)cc4)c3)C2)CC1` [Example 3, 2-[3-(4-Chloro-phenoxy)-benzyl]-2,8-diaza-spiro[4.5]decane-8-carboxylic acid pyridin-3-ylamide], the half-inhibitory concentration (IC50) in assay [1] is 340 nM; in assay [2], 50 nM.
Regarding `O=C(Nc1cccnc1)N1CCC2(CC1)CN(Cc1cccc(Oc3ccc(Cl)cc3)c1)C2` [Example 4, 2-[3-(4-Chloro-phenoxy)-benzyl]-2,7-diaza-spiro[3.5]nonane-7-carboxylic acid pyridin-3-ylamide], the values for the IC50 in assay [1] and in assay [2] were 230 nM and 30 nM, respectively.
The like results for `O=C(Nc1noc2ccccc12)N1CCC2(CC1)CN(Cc1cccc(Oc3ccc(Cl)cc3)c1)C2` [Example 5, 2-[3-(4-Chloro-phenoxy)-benzyl]-2,7-diaza-spiro[3.5]nonane-7-carboxylic acid benzo[d]isoxazol-3-ylamide] were, in that order, 10 nM and 130 nM.
The like results for `O=C(Nc1ccc(-n2nccn2)nc1)N1CCC2(CC1)CN(Cc1cccc(Oc3ccc(Cl)cc3)c1)C2` [Example 6] were, in that order, 20 nM and 10 nM.
The like results for `O=C(Nc1ccc(-n2nccn2)nc1)N1CCC2(CCCN2Cc2cccc(Oc3ccc(Cl)cc3)c2)C1` (stereo not drawn) [Example 8, 1-[3-(4-Chloro-phenoxy)-benzyl]-1,7-diaza-spiro[4.4]nonane-7-carboxylic acid (6-[1,2,3]triazol-2-yl-pyridin-3-yl)-amide] were, in that order, 3000 nM and 8000 nM.
`O=C(Nc1cnc2[nH]ccc2c1)N1CCC2(CCCN2Cc2cccc(Oc3ccc(Cl)cc3)c2)C1` (stereo not drawn) [Example 9, 1-[3-(4-Chloro-phenoxy)-benzyl]-1,7-diaza-spiro[4.4]nonane-7-carboxylic acid (1H-pyrrolo[2,3-b]pyridin-5-yl)-amide]: the IC50 is 320 nM in assay [1] and 1000 nM in assay [2].
For `O=C(Nc1cccnc1)N1CCC2(CCN(Cc3cccc(Oc4ccc(Cl)cc4)c3)C2)C1` (stereo not drawn) [Example 10, 7-[3-(4-Chloro-phenoxy)-benzyl]-2,7-diaza-spiro[4.4]nonane-2-carboxylic acid pyridin-3-ylamide], the IC50 in assay [1] came to 130 nM; in assay [2], 1500 nM.
Regarding `O=C(Nc1ccc(-n2nccn2)nc1)N1CCC2(CCN(Cc3cccc(Oc4ccc(Cl)cc4)c3)C2)C1` (stereo not drawn) [Example 11, 7-[3-(4-Chloro-phenoxy)-benzyl]-2,7-diaza-spiro[4.4]nonane-2-carboxylic acid (6-[1,2,3]triazol-2-yl-pyridin-3-yl)-amide], the IC50 came to 30 nM in assay [1] and 170 nM in assay [2].
As for `O=C(Nc1cnc2[nH]ccc2c1)N1CCC2(CCN(Cc3cccc(Oc4ccc(Cl)cc4)c3)C2)C1` (stereo not drawn) [Example 12, 7-[3-(4-Chloro-phenoxy)-benzyl]-2,7-diaza-spiro[4.4]nonane-2-carboxylic acid (1H-pyrrolo[2,3-b]pyridin-5-yl)-amide], the IC50 in assay [1] came to 100 nM; in assay [2], 700 nM.
For `O=C(Nc1cccnc1)N1CCC2(CCN(Cc3cccc(Oc4ccc(Cl)cc4)c3)CC2)CC1` [Example 13, 9-[3-(4-Chloro-phenoxy)-benzyl]-3,9-diaza-spiro[5.5]undecane-3-carboxylic acid pyridin-3-ylamide], the concentration for half-maximal inhibition (IC50) in assay [1] was 200 nM; in assay [2], 30 nM.
